Laboratory results from article PMC9234961 (Journal of Medicinal Chemistry, 2022).
“And” between values parts separate entries of the source, which are not always exact repeats. Equal entries are not always repeated. Where two headings read alike, the source gives them in different places.

Legend:
kinases (468) [1] = target: kinases (468) (Homo sapiens, UniProt P10721, A829P); settings: KIT(A829P); 1000 nM
kinases (468) [2] = target: kinases (468) (Homo sapiens, UniProt Q16513); settings: PKN2; 1000 nM
kinases (468) [3] = target: kinases (468) (Homo sapiens, UniProt P42336, Q546K); settings: PIK3CA(Q546K); 1000 nM
kinases (468) [4] = target: kinases (468) (Homo sapiens, UniProt Q15303); settings: ERBB4; 1000 nM
kinases (468) [5] = target: kinases (468) (Homo sapiens, UniProt Q15418); settings: compound concentration 1000 nM
kinases (468) [6] = target: kinases (468) (Homo sapiens, UniProt P53667); settings: LIMK1; 1000 nM
kinases (468) [7] = target: kinases (468) (Homo sapiens, UniProt Q04912); settings: MST1R; 1000 nM
kinases (468) [8] = target: kinases (468) (Homo sapiens, UniProt Q13523); settings: PRP4 (PRPF4B); 1000 nM
kinases (468) [9] = target: kinases (468) (Homo sapiens, UniProt O75676); settings: compound concentration 1000 nM
kinases (468) [10] = target: kinases (468) (Homo sapiens, UniProt P52333); settings: JAK3(JH1domain-catalytic); 1000 nM
kinases (468) [11] = target: kinases (468) (Homo sapiens, UniProt Q9P0L2); settings: MARK1; 1000 nM
kinases (468) [12] = target: kinases (468) (Homo sapiens, UniProt Q9Y6R4); settings: MAP3K4; 1000 nM
kinases (468) [13] = target: kinases (468) (Homo sapiens, UniProt O14976); settings: GAK; 1000 nM
kinases (468) [14] = target: kinases (468) (Homo sapiens, UniProt Q09013); settings: DMPK; 1000 nM
kinases (468) [15] = target: kinases (468) (Homo sapiens, UniProt Q9UEE5); settings: DRAK1 (STK17A); 1000 nM
kinases (468) [16] = target: kinases (468) (Homo sapiens, UniProt Q96Q40); settings: PFTAIRE2 (CDK15); 1000 nM
kinases (468) [17] = target: kinases (468) (Homo sapiens, UniProt P24723); settings: PRKCH; 1000 nM
kinases (468) [18] = target: kinases (468) (Homo sapiens, UniProt P0C264); settings: kinase SgK110 (Entrez SgK110); compound concentration 1000 nM
kinases (468) [19] = target: kinases (468) (Homo sapiens, UniProt P21709); settings: EPHA1; 1000 nM
kinases (468) [20] = target: kinases (468) (Homo sapiens, UniProt Q9HBH9); settings: MKNK2; 1000 nM
kinases (468) [21] = target: kinases (468) (Homo sapiens, UniProt Q9H4A3); settings: kinase WNK1 (Entrez WNK1); compound concentration 1000 nM
kinases (468) [22] = target: kinases (468) (Homo sapiens, UniProt Q9HBY8); settings: kinase SGK2 (Entrez SGK2); compound concentration 1000 nM
kinases (468) [23] = target: kinases (468) (Homo sapiens, UniProt P78356); settings: PIP5K2B (PIP4K2B); 1000 nM
kinases (468) [24] = tested on: kinases (468)
kinases (468) [25] = target: kinases (468) (Homo sapiens, UniProt Q06418); settings: kinase TYRO3 (Entrez TYRO3); compound concentration 1000 nM
kinases (468) [26] = target: kinases (468) (Homo sapiens, UniProt Q13705); settings: ACVR2B; 1000 nM
kinases (468) [27] = target: kinases (468) (Homo sapiens, UniProt O43283); settings: LZK (MAP3K13); 1000 nM
kinases (468) [28] = target: kinases (468) (Homo sapiens, UniProt P51451); settings: BLK; 1000 nM
kinases (468) [29] = target: kinases (468) (Homo sapiens, UniProt Q9NRH2); settings: kinase SNRK (Entrez SNRK); compound concentration 1000 nM
kinases (468) [30] = target: kinases (468) (Homo sapiens, UniProt Q00535); settings: CDK5; 1000 nM
kinases (468) [31] = target: kinases (468) (Homo sapiens, UniProt Q06187); settings: BTK; 1000 nM
kinases (468) [32] = target: kinases (468) (Homo sapiens, UniProt O96017); settings: CHEK2; 1000 nM
kinases (468) [33] = target: kinases (468) (Homo sapiens, UniProt Q16288); settings: kinase TRKC (Entrez NTRK3); compound concentration 1000 nM
kinases (468) [34] = target: kinases (468) (Homo sapiens, UniProt P51956); settings: NEK3; 1000 nM

kinases (468) (Homo sapiens, UniProt Q15418), sequence (Q15418 whole entry): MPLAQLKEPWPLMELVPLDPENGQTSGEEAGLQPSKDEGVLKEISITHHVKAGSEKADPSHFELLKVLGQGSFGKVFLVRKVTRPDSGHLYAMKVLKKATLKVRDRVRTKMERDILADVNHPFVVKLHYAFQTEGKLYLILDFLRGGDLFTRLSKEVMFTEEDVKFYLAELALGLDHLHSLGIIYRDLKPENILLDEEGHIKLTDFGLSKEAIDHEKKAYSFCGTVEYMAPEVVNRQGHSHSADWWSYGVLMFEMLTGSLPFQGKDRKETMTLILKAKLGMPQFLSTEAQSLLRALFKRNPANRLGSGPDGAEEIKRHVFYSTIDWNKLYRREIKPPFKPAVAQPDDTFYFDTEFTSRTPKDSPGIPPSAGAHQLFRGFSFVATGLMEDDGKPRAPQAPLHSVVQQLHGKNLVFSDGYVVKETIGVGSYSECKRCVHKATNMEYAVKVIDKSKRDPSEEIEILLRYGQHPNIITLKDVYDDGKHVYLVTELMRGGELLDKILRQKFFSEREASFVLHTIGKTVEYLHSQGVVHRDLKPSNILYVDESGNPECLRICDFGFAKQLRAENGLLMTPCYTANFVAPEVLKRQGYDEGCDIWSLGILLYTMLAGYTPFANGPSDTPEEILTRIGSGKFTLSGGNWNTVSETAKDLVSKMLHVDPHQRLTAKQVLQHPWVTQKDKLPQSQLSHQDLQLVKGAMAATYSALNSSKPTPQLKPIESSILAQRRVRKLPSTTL
kinases (468) (Homo sapiens, UniProt O75676), sequence (O75676 whole entry): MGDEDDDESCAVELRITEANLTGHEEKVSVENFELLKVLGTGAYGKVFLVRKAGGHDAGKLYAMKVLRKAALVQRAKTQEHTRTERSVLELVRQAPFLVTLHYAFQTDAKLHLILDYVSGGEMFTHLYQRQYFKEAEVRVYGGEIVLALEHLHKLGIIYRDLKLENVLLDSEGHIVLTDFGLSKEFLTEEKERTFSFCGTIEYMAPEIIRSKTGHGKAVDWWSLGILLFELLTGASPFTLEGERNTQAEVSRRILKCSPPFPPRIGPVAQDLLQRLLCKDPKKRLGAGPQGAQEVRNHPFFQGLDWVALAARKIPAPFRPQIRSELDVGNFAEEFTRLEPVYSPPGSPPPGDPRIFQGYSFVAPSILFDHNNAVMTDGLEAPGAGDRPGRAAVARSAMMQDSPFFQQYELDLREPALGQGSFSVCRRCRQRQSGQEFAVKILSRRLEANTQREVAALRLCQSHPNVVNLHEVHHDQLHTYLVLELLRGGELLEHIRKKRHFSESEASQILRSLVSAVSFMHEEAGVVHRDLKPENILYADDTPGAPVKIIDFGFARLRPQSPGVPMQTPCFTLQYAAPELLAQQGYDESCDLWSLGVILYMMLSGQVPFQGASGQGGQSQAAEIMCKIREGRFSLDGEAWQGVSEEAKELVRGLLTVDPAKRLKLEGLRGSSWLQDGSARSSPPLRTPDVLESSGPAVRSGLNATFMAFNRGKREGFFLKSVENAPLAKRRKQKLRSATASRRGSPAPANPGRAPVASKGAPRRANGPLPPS
kinases (468) (Homo sapiens, UniProt Q9P0L2), sequence (Q9P0L2 whole entry): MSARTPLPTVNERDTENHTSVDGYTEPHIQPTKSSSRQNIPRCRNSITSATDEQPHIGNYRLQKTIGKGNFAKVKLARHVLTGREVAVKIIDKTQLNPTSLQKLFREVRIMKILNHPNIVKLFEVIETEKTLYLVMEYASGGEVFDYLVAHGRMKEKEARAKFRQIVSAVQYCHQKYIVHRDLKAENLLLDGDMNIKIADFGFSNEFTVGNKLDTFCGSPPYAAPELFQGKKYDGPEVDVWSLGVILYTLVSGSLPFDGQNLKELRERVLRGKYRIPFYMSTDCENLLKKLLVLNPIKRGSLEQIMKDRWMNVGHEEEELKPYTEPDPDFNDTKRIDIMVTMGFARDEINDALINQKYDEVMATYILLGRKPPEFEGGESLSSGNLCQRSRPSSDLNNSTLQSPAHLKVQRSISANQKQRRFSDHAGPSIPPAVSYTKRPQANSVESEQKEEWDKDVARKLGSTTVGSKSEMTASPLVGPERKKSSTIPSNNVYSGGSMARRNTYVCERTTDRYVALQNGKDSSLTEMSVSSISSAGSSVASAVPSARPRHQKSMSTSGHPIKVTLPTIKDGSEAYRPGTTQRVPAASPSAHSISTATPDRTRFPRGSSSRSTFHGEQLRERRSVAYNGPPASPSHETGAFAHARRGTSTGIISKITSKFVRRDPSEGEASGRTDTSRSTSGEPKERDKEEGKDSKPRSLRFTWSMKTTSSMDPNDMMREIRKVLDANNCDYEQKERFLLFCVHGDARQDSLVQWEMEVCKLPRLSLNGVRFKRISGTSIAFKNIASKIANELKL
kinases (468) (Homo sapiens, UniProt Q96Q40), sequence (Q96Q40 whole entry): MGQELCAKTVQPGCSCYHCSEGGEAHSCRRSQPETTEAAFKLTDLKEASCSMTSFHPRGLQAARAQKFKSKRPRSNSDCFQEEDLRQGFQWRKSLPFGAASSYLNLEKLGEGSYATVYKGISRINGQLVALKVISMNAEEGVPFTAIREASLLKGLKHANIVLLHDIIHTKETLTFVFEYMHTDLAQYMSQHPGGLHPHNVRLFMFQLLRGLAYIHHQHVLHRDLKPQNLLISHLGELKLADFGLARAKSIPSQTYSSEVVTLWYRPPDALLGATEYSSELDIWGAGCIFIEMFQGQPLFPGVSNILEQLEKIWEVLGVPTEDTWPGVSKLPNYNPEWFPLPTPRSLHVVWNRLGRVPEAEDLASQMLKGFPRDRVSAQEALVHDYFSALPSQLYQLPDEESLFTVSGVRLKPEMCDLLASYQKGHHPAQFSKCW
kinases (468) (Homo sapiens, UniProt P42336, Q546K), sequence (P42336 whole entry Q546K): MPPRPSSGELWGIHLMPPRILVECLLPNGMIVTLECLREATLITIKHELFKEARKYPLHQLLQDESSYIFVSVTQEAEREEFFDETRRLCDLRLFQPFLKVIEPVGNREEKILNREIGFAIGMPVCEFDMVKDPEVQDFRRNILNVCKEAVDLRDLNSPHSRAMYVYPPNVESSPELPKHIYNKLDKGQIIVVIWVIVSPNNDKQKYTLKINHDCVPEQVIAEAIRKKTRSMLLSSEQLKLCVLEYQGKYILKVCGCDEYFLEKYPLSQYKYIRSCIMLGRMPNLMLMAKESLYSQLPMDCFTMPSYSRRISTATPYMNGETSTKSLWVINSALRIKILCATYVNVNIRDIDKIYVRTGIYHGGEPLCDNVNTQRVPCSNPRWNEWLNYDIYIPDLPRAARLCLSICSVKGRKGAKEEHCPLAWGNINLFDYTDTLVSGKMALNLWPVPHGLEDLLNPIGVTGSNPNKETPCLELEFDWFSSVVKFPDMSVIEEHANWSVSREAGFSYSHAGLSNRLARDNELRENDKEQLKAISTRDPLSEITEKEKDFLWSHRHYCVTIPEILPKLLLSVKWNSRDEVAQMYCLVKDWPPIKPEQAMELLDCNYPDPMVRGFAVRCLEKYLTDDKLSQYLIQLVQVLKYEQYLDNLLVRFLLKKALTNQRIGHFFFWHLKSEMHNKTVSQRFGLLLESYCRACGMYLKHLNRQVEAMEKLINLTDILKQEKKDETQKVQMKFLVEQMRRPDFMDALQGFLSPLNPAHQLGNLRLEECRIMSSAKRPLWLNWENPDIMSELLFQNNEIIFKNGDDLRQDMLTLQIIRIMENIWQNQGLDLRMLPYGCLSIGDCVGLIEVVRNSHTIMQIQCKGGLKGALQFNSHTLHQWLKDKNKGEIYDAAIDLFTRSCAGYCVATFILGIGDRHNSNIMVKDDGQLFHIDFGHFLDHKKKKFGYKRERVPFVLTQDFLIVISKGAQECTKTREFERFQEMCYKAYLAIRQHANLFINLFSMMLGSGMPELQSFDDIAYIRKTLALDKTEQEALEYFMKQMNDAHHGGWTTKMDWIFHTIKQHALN
kinases (468) (Homo sapiens, UniProt P10721, A829P), sequence (P10721 26-976 A829P): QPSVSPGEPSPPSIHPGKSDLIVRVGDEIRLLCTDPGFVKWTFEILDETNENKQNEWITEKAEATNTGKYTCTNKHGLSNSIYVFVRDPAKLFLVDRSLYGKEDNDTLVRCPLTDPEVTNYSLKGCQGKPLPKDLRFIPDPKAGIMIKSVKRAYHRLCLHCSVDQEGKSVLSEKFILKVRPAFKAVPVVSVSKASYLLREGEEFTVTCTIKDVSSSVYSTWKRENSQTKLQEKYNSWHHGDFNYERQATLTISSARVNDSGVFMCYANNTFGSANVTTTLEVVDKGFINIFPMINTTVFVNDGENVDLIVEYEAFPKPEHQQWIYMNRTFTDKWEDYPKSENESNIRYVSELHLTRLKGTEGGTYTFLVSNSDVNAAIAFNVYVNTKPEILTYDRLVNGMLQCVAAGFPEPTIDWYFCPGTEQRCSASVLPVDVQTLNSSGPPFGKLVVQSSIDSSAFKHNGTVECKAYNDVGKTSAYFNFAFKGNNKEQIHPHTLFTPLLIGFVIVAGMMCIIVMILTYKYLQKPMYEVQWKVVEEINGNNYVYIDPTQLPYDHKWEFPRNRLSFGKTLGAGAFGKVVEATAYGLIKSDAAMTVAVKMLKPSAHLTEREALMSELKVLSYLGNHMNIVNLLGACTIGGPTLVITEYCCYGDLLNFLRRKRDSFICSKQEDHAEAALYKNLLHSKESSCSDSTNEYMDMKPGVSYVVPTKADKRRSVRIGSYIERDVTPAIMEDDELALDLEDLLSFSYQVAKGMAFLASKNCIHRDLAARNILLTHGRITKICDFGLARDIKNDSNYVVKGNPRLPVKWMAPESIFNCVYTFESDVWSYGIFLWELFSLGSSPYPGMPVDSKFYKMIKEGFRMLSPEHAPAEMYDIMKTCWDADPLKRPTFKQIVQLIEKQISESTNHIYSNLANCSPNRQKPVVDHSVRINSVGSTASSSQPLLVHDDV
kinases (468) (Homo sapiens, UniProt Q00535), sequence (Q00535 whole entry): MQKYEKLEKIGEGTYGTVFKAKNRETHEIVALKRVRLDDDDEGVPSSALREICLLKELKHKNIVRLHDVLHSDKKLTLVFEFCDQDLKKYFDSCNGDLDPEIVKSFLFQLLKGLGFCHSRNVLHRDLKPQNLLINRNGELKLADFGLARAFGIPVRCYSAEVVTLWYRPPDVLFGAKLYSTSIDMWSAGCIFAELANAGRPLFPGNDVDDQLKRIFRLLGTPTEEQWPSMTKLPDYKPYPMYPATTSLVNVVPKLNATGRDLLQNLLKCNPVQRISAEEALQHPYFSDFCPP

C[C@H]1C[C@@H](O)CN(c2ncc(Cl)c(Nc3ccc4c(c3)c3c(c(=O)n4C)OCC(F)(F)[C@H](C4CC4)N3)n2)C1 [CCT373566_9A]
Percent Control (kinases (468) [1]): 100%
Percent Control (kinases (468) [2]): 100%
Percent Control (kinases (468) [3]): 89%
Percent Control (kinases (468) [4]): 99%
Percent Control (kinases (468) [5]; kinase RSK1(Kin.Dom.1-N-terminal) (Entrez RPS6KA1)): 95%
Percent Control (kinases (468) [5]; kinase RSK1(Kin.Dom.2-C-terminal) (Entrez RPS6KA1)): 90%
Percent Control (kinases (468) [6]): 57%
Percent Control (kinases (468) [7]): 91%
Percent Control (kinases (468) [8]): 94%
Percent Control (kinases (468) [9]; kinase RPS6KA4(Kin.Dom.1-N-terminal) (Entrez RPS6KA4)): 96%
Percent Control (kinases (468) [9]; kinase RPS6KA4(Kin.Dom.2-C-terminal) (Entrez RPS6KA4)): 100%
Percent Control (kinases (468) [10]): 78%
Percent Control (kinases (468) [11]): 100%
Percent Control (kinases (468) [12]): 100%
Percent Control (kinases (468) [13]): 86%
Percent Control (kinases (468) [14]): 98%
Percent Control (kinases (468) [15]): 99%
Percent Control (kinases (468) [16]): 98%
Percent Control (kinases (468) [17]): 94%
Percent Control (kinases (468) [18]): 95%
Percent Control (kinases (468) [19]): 100%
Percent Control (kinases (468) [20]): 100%
Percent Control (kinases (468) [21]): 100%
Percent Control (kinases (468) [22]): 86%
Percent Control (kinases (468) [23]): 100%
Percent Control (kinases (468) [24]): 98% and 100% and 83%
Percent Control (kinases (468) [24]; FLT3(ITD), 1000 nM): 99%
Percent Control (kinases (468) [24]; FLT3(ITD,D835V), 1000 nM): 75%
Percent Control (kinases (468) [25]): 100%
Percent Control (kinases (468) [26]): 84%
Percent Control (kinases (468) [27]): 81%
Percent Control (kinases (468) [28]): 99%
Percent Control (kinases (468) [29]): 93%
Percent Control (kinases (468) [30]): 97%
Percent Control (kinases (468) [31]): 100%
Percent Control (kinases (468) [32]): 99%
Percent Control (kinases (468) [33]): 100%
Percent Control (kinases (468) [34]): 98%
